Measured values: PubChem BioAssay AID2202558 (NIEHS Division of Translational Toxicology (DTT))
Results filed as inconclusive are left out. The source made the active and inactive calls. How the calls were made is not given here. Where a SMILES comes first, the peptide text is derived from it.

tested on: mouse/rat in vivo micronucleus assay, summary call; test: In vivo micronucleus assay summary data
Text: The erythrocyte micronucleus test examines the ability of substances to cause chromosome damage in developing red blood cells inside bone marrow. A micronucleus (literally, "little nucleus") is a biomarker of structural chromosome damage (e.g., breaks) and changes in chromosome number (e.g., chromosome loss). If a chromosome is broken or fails to migrate properly with other chromosomes during cell division, the broken piece or lost chromosome will form a small (micro) nucleus of its own in one of the two daughter cells produced. Detection of chromosomal damage is important because it has been linked to birth defects, infertility, and certain diseases, including cancer.
The micronucleus test is performed in rapidly dividing cell populations, and bone marrow is a site of rapid blood cell division. Both bone marrow and peripheral blood samples can be examined for the presence of micronuclei in red blood cells.
Animals are treated with a test substance once or daily over a period of time, and the frequency of micronucleated cells is determined 24-48 hours after the final treatment, depending on the source of the cells (bone marrow or blood) that are examined and the treatment regimen.
The test subjects are rodents (rats or mice) that are exposed to the test substance, usually by oral gavage or injection. Typically, one to three daily treatments of the test substance are administered over a range of doses; the highest dose tested is near the maximum tolerated dose. Groups of negative and positive control animals are included for each test. Bone marrow samples are obtained from all animals 24 hours after the last treatment, and red blood cells are examined for the presence of micronuclei.
B. Peripheral Blood Tests
Micronucleus tests are performed on male and female rodents that are exposed to the test substance orally, dermally, or by inhalation in subchronic (e.g., 28 or 90 days) or short term (e.g., 48-72 hours) toxicity studies. 24 to 48 hours after the final exposure, peripheral blood samples are obtained and red blood cells are examined for the presence of micronuclei. Samples may be examined using standard slide scoring procedures or automated flow cytometric approaches. Since 2007, NTP has routinely relied on flow cytometry to evaluate the frequency of micronucleated cells in peripheral blood.
Peripheral blood micronucleus assays are typically integrated into all NTP toxicity studies, and they also lend themselves to serial monitoring of micronucleus frequencies over time, since blood samples can be obtained without the need to sacrifice the animals.
Blood or bone marrow samples from treated animals are compared to samples from untreated animals. With the slide-based approach for data acquisition, 1000-2000 cells were scored per animal. Using flow cytometric procedures to evaluate blood samples, 20,000 immature red blood cells and around one million mature red blood cells are examined per animal, resulting in a marked increase in the ability to detect small changes in the frequency of micronucleated red blood cells. The data is analyzed using statistical methods to determine if there is a significant increase in the frequency of cells containing micronuclei. Both dose-related responses and the magnitude of response for each independent dose group are considered during the evaluation of the data. For a positive test, both a significant dose response (trend) and at least one significant dose group are required. If only one of these measures is present, the test is determined to be questionable. The absence of either condition results in a negative test. The final conclusions for micronucleus tests are determined by considering the results of statistical analyses, reproducibility of any observed effects, and the magnitude of the effects. Ultimately, both the biological significance as well as statistical significance is considered when reaching a final conclusion.
[…]

SMILES | outcome
CCN(N=O)C(N)=O | active; positive
O=S(=O)([O-])[O-].[O]=[V+2] | inactive; negative
C=CC(N)=O | active; positive
O=S(=O)(c1ccc(Cl)cc1)c1ccc(Cl)cc1 | active; positive
CC(C)(C)O | inactive; negative
FC(F)(F)c1ccc(Cl)cc1 | active; positive
COc1ccc2nc(N)sc2c1 | active; positive
CC/C(=C(/CC)c1ccc(O)cc1)c1ccc(O)cc1 | active; positive
O=C(O)CS | active; positive
CC1=CC(=O)NS(=O)(=O)O1 | active; positive
Clc1ccc(N=Nc2ccc(Cl)c(Cl)c2)cc1Cl | active; positive
ClCC(Cl)(Cl)Cl | active; positive
O[C@@H]([C@H](O)[C@H](O)CBr)[C@H](O)CBr | active; positive
Nc1ccc(Cl)cc1 | active; positive
[O]=[Cr](=[O])([OH])[O][Cr](=[O])(=[O])[OH] | active; positive
C=CC(=O)NCNC(=O)C=C | active; positive
C(=NC1CCCCC1)=NC1CCCCC1 | active; weakly positive
Oc1c(Cl)c(Cl)c(Cl)c(Cl)c1Cl | inactive; negative
CCOC(C)(C)C | inactive; negative
Nc1ccc(Cl)cc1N | active; positive
C=CC(=O)OCC(CO)(COC(=O)C=C)COC(=O)C=C | active; positive
CC(=O)C(C)=O | inactive; negative

SMILES | outcome
BrCCBr | active; positive
Nc1nc(=S)c2[nH]cnc2[nH]1 | active; positive
CN(N=O)C(N)=O | active; positive
Nc1ccn([C@@H]2O[C@H](CO)[C@@H](O)[C@@H]2O)c(=O)n1 | active; positive
C=CC(=O)CC | inactive; negative
Cc1cccc(Nc2cc(Cl)nc(SCC(=O)O)n2)c1C | inactive; negative
O=[N+]([O-])C(Br)=Cc1ccccc1 | active; positive
Cc1ccc(S(N)(=O)=O)cc1 | inactive; negative
CCOS(C)(=O)=O | active; positive
Cc1c2ccccc2c(C)c2c1ccc1ccccc12 | active; positive
O=C1c2ccccc2C(=O)c2ccccc21 | active; positive
O=C(O)C(F)(F)C(F)(F)C(F)(F)C(F)(F)C(F)(F)C(F)(F)C(F)(F)F | active
C[C@]12CC[C@@H]3c4ccc(O)cc4CC[C@H]3[C@@H]1CC[C@@H]2O | inactive; negative
CCCCCCc1ccc(O)cc1O | active; positive
CC(CCl)OP(=O)(OC(C)CCl)OC(C)CCl (stereo not drawn) | active; positive
C=COC(C)=O | active
Nc1ncn([C@@H]2O[C@H](CO)[C@@H](O)[C@H]2O)c(=O)n1 | active; positive
Cc1c(N)cccc1N | active; positive
O=C1C=CCCC1 | inactive; negative
Nc1cccc(Cl)c1 | inactive; negative
O=NO | inactive; negative
C=C(C)C#N | inactive; negative

SMILES | outcome
Nc1ccccc1Cl | active; negative
CC(C)C=O | inactive; negative
C=C(C)c1ccccc1 | active; positive
Nc1ccc(-c2ccccc2)cc1 | active; positive
OC(O)C(Cl)(Cl)Cl | active; positive
c1ccccc1 | active; positive
OCc1c[nH]c2ccccc12 | inactive; negative
CCOC(N)=O | active; positive
O=S(=O)(O)C(F)(F)C(F)(F)C(F)(F)C(F)(F)C(F)(F)C(F)(F)C(F)(F)C(F)(F)F | active
Cc1cn([C@H]2C=C[C@@H](CO)O2)c(=O)[nH]c1=O | active; positive
CCC(=O)C(C)=O | inactive; negative
CN(C)CCC(c1ccc(Cl)cc1)c1ccccn1 (stereo not drawn) | inactive; negative
C1CN1c1nc(N2CC2)nc(N2CC2)n1 | active; positive
Cc1ccccc1N | active; negative
Cc1ncc[nH]1 | active; positive
O=CC=CC=Cc1ccc([N+](=O)[O-])cc1 | active; positive (nonstandard protocol)
O=C1O[C@H]([C@@H](O)CO)C(O)=C1O | active; positive
O=P1(N(CCCl)CCCl)NCCCO1 (stereo not drawn) | active; positive
COC(=O)[C@H](Cc1ccccc1)NC(=O)[C@@H](N)CC(=O)O (H-Asp-Phe-OMe) | active; positive
CCCCCC=CC=CC=O | active; equivocal
O=C(O)C(Cl)Cl | active; positive
ClC(Cl)Cl | active; positive

SMILES | outcome
ClC(Cl)C(Cl)Cl | active; positive
Cc1cnc[nH]1 | inactive; negative
CO[C@@]12[C@H](COC(N)=O)C3=C(C(=O)C(C)=C(N)C3=O)N1C[C@@H]1N[C@@H]12 | active; positive
Brc1c(Br)c(Br)c(Oc2c(Br)c(Br)c(Br)c(Br)c2Br)c(Br)c1Br | active
CC(=O)CC(C)=O | active; positive
NC(=O)c1ncn([C@@H]2O[C@H](CO)[C@@H](O)[C@H]2O)n1 | active; positive
c1ccc(N=NNc2ccccc2)cc1 | active; positive
CC(=O)C(C)O (stereo not drawn) | inactive; negative
CN(C)c1ccc(C(=C2C=CC(=[N+](C)C)C=C2)c2ccccc2)cc1 | inactive; negative
CC[C@H](CC[C@@H](C)[C@H]1CC[C@H]2[C@@H]3CC=C4C[C@@H](O)CC[C@]4(C)[C@H]3CC[C@]12C)C(C)C | inactive; negative
Nc1ccc(Oc2ccc(N)cc2)cc1 | active; positive
CCCC[N+]1(C)CCCC1 | active; negative
COC(=O)C(c1ccccc1)C1CCCCN1 (stereo not drawn) | inactive; negative
CCCCOCCO | inactive; negative
C=CCOCC1CO1 (stereo not drawn) | active; positive
O=C1OC(c2ccc(O)cc2)(c2ccc(O)cc2)c2ccccc21 | active; positive
CC(C)CON=O | active; positive
ClCCOCOCCCl | inactive; negative
CCCCC(CC)COC(=O)c1ccccc1C(=O)OCC(CC)CCCC (stereo not drawn) | active; positive
S=c1[nH]c2ccccc2s1 | inactive; negative
Oc1ccc(O)cc1 | active; positive
Nc1nc(=O)n([C@@H]2CS[C@H](CO)O2)cc1F | active; positive

SMILES | outcome
CC(O)COC(C)(C)C (stereo not drawn) | active; weakly positive
Cc1ccc([N+](=O)[O-])cc1 | inactive; negative
C=CCc1cc(OC)c2c(c1)OCO2 | active; negative
c12c3c4c5c1c1c6c7c2c2c8c3c3c9c4c4c%10c5c5c1c1c6c6c%11c7c2c2c7c8c3c3c8c9c4c4c9c%10c5c5c1c1c6c6c%11c2c2c7c3c3c8c4c4c9c5c1c1c6c2c3c41 | inactive; negative
[O-][N+](=Nc1ccc(Cl)c(Cl)c1)c1ccc(Cl)c(Cl)c1 | active; positive
CC1C(=O)C[C@]2(C(C)C)C[C@H]12 (stereo partly drawn) | active; positive
CC#N | active; positive
CC(C)c1ccccc1 | active; negative
Oc1ccccc1 | active; positive
Nc1ccc(S(=O)(=O)Nc2ccccn2)cc1 | active; positive
Nc1ccccc1 | active; positive
Nc1ccn([C@H]2CC[C@@H](CO)O2)c(=O)n1 | active; positive
O=C(O)c1cc(N=Nc2ccc(S(=O)(=O)Nc3ccccn3)cc2)ccc1O | active; positive
CCCCn1cc[n+](C)c1 | inactive; negative
NC(=O)NO | active; positive
C=CC(=O)NCCNC(=O)C=C | active; positive (nonstandard protocol)
CS(=O)(=O)OC[C@H](O)[C@@H](O)COS(C)(=O)=O | active; positive
C=CCO | inactive; negative
CC(=O)C1(C)CC2=C(CCCC2(C)C)CC1C (stereo not drawn) | active; positive
C=CCOC(C)=O | active; weakly positive
